# Measurements taken from PMC6886544.
# “And” between values parts separate entries of the source, which are not always exact repeats. Equal values may be shown once. Read-outs that look alike come from different tables or passages of the source.
# What was measured:
# [1] = test system: A431 cells (EGFR wild type); test: CellTiter-Glo viability assay, A431; conditions: Homo sapiens, A-431, 96 h, read-out: EGFR CTG EC50 A431, A431, 96 hours, CellTiter-Glo
# Protocol: (§1) A431, HCC827, H1975, A549 and H358 cells were obtained from the American Type Culture Collection (ATCC). A431 cells were cultured in DMEM high glucose media (Life Technologies, Germany), and HCC827, H1975, A549 as well as H358 cells were cultured in RPMI media (Life Technologies, Germany), both containing L-Glutamine and were supplemented with 10% FBS (GE Healthcare, Austria) and 1% PenStrep (Life Technologies, Germany) in a humidified incubator at 37 °C and 5% CO2.
# (§2) Cells were seeded at cell numbers that assure linearity and optimal signal intensity (150-300 cells/well, 25 µL) and cultured for 24 hours in serum- and antibiotics-containing media in humidified chambers at 37 °C / 5% CO2. The cells were then treated with EGFR inhibitors in serial
# (§3) Afterwards viability studies were carried out using CellTiter-Glo Assay (Promega, USA) that is a homogeneous method of determining the number of viable cells in culture. It is based on quantification of ATP, indicating the presence of metabolically active cells. For these studies, CellTiter-Glo reagent was prepared according to the instructions of the kit and diluted 1:1 with the complete growth medium suitable for the corresponding cell line. Thereon, reagent and assay plates were equilibrated at room temperature for 20 min. Equal volumes of the reagent were added to the volume of culture medium present in each well (25 µL). The plates were mixed for 2 minutes on an orbital shaker to induce cell lysis. The microplates were then incubated at room temperature for 20 minutes for stabilization of the luminescent signal. Following incubation the luminescence was recorded on an EnVision microplate reader (Perkin Elmer) using 500 ms integration time. The data was then analyzed using the Quattro Research Software Suite for EC50-determination. As quality control the Z’-factor was calculated from 16 positive and negative control values. Only assay results showing a Z’-factor ≥0.5 were used for further analysis. All data points were measured in duplicates for each plate and were replicated in at least two plates.
# H358 cells (KRAS mutant) = test: CellTiter-Glo viability assay, H358; assay type: cell-based; conditions: Homo sapiens, NCI-H358; H358, 96 hours, CellTiter-Glo; read-out: KRAS CTG EC50 H358;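 further: viable cell number estimated from ATP-dependent luminescence following exposure to serially diluted inhibitor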
# Protocol: as §1, §2, §3
# A549 cells (KRAS mutant) = test: CellTiter-Glo viability assay, A549; conditions: Homo sapiens, A549, 96 h, read-out: KRAS CTG EC50 A549
# [2] = test system: HCC827 cells (EGFR-delE746_A750); test: CellTiter-Glo viability assay, HCC827; assay type: cell-based; conditions: Homo sapiens; HCC827, 96 hours, CellTiter-Glo; read-out: EGFR CTG EC50 HCC827;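 further: luminescence from ATP content as a measure of metabolically active cells, in RPMI with 10% FBS, compound added as serial dilutions after 24 h of preculture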
# [3] = test system: H1975 cells (EGFR-L858R/T790M); test: CellTiter-Glo viability assay, H1975
# Protocol: as §1, §2, §3
# EGFR-wt = EGFR-wt (Homo sapiens, UniProt P00533); test: HTRF KinEASE-TK activity-based assay, EGFR-wt
# EGFR-wt, sequence (P00533 25-1210): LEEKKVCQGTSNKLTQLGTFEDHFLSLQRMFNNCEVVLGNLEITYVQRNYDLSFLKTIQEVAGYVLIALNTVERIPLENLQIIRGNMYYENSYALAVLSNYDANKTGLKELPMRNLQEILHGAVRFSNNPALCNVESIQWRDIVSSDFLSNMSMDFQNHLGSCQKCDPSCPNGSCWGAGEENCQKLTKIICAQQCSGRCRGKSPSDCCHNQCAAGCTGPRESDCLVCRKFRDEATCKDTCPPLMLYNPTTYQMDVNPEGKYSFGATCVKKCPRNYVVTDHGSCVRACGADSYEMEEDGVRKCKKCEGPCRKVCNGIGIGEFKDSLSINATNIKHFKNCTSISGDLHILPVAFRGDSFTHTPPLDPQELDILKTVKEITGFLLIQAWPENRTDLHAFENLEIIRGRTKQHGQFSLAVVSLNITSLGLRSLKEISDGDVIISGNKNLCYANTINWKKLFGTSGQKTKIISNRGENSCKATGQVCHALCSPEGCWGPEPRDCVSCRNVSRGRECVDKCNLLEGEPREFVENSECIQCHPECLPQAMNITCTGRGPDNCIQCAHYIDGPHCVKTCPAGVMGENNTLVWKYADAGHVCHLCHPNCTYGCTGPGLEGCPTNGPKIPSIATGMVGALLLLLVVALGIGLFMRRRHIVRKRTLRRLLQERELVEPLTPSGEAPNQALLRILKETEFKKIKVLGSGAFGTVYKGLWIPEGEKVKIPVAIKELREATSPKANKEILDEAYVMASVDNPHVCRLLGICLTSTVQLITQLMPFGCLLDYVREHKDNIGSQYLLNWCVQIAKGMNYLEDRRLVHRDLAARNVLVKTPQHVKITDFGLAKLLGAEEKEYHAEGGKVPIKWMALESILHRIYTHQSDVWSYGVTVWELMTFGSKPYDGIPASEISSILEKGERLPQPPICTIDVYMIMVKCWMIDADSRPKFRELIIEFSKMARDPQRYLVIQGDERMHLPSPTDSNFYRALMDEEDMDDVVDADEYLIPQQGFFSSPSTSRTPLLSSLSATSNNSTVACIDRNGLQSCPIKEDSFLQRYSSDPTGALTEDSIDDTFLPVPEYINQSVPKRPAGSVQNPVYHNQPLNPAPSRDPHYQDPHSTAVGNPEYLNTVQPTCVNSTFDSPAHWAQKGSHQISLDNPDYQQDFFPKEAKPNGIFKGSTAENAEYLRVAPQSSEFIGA
# EGFR-L858R = EGFR-L858R (Homo sapiens, UniProt P00533, L858R); test: HTRF KinEASE-TK activity-based assay, EGFR-L858R
# EGFR-L858R, sequence (P00533 25-1210 L858R): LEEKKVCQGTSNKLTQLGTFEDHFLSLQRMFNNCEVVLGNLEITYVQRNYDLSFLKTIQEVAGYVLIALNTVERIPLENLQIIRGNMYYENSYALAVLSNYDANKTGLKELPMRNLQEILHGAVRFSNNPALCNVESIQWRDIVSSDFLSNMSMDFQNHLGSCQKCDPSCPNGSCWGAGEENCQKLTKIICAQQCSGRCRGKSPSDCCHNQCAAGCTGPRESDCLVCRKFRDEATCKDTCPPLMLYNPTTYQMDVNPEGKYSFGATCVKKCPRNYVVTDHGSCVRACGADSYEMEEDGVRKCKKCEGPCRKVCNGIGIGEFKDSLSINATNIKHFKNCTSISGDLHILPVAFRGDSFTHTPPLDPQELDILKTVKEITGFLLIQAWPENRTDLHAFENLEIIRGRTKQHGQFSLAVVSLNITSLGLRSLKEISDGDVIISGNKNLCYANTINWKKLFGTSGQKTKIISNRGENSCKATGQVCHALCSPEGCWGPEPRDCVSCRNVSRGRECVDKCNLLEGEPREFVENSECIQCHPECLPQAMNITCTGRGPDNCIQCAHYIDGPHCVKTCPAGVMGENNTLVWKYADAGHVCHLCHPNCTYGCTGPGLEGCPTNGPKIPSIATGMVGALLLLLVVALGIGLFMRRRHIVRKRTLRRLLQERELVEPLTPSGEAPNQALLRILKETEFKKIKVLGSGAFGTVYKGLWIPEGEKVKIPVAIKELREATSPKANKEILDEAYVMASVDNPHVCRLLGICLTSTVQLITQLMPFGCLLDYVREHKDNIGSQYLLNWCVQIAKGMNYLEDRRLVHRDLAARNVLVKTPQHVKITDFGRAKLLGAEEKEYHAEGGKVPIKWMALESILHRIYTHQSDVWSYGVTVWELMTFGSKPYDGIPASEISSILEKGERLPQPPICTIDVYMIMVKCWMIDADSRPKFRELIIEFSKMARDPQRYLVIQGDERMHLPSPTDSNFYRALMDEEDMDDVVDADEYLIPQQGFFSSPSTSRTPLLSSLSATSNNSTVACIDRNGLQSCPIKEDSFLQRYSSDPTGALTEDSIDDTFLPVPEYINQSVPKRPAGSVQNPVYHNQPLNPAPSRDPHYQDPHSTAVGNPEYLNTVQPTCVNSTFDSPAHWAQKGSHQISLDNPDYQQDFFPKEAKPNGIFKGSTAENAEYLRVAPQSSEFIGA
# EGFR-L858R/T790M = EGFR-L858R/T790M (Homo sapiens, UniProt P00533, L858R/T790M); test: HTRF KinEASE-TK activity-based assay, EGFR-L858R/T790M
# EGFR-L858R/T790M, sequence (P00533 25-1210 T790M/L858R): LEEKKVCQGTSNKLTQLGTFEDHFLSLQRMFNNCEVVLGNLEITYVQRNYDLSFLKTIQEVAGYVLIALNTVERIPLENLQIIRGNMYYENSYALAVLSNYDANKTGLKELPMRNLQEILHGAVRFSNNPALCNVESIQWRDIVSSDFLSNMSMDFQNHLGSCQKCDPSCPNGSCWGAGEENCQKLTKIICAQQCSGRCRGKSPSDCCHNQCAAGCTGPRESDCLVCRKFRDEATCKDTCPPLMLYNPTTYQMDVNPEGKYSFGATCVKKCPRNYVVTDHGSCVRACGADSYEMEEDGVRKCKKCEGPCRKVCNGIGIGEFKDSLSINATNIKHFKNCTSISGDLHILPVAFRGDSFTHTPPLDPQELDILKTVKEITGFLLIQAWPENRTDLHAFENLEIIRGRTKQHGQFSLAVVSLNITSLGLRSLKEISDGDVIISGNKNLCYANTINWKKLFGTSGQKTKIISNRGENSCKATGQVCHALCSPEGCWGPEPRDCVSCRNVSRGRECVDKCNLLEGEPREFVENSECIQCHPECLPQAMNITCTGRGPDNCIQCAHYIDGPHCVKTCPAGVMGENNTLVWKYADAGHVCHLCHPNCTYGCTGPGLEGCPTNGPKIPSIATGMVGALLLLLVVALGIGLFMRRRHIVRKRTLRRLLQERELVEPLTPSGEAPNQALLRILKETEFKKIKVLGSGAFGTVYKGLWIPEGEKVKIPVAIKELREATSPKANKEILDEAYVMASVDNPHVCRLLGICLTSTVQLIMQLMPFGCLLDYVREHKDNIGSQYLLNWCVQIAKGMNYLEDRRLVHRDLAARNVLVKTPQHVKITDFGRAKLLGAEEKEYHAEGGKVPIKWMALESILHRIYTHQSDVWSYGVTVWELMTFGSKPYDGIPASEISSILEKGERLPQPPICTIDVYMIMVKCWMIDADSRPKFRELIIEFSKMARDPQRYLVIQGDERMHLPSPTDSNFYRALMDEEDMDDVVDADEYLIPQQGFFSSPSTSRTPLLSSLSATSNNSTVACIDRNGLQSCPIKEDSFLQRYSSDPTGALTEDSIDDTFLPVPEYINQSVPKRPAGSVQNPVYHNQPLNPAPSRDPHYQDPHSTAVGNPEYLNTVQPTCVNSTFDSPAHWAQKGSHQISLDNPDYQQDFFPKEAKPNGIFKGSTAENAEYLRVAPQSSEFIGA
# [4] = Homo sapiens, NCI-H1975, 96 h, read-out: EGFR CTG EC50 H1975, H1975, 96 hours, CellTiter-Glo
# [5] = EGFR HTRF IC50 wt, ATP at Km (9.5 µM), 30 min preincubation, mean ± SD of three independent measurements in duplicates
# [6] = EGFR HTRF IC50 L858R/T790M, ATP at Km (4 µM), 30 min preincubation, mean ± SD of three independent measurements in duplicates
# [7] = read-out: EGFR CTG EC50 H1975, H1975, 96 hours, CellTiter-Glo
Compound,EC50 [1] [nM],EC50 (H358 cells (KRAS mutant)) [nM],EC50 (A549 cells (KRAS mutant)) [nM],EC50 [2] [nM],"EC50 [3, 4] [nM]",IC50 (EGFR-wt; [5]) [nM],"IC50 (EGFR-wt; IC50 EGFR-wt, rounded value) [nM]",IC50 (EGFR-L858R) [nM],IC50 (EGFR-L858R/T790M; [6]),"IC50 (EGFR-L858R/T790M; IC50 gatekeeper mutant EGFR, rounded value) [nM]","EC50 ([3]; Homo sapiens, NCI-H1975, read-out: EC50 / potency in H1975 cells, H1975, rounded value in running text) [nM]","EC50 [3, 7] [nM]"
"CCN1CCN(Cc2ccc(-c3cc4c(N[C@H](C)c5ccccc5)ncnc4[nH]3)cc2)CC1 [AEE788, reference compound]",1790 ± 1090,3780 ± 383,3970 ± 720,16 ± 3,4680 ± 1030,–,–,–,–,–,–,–
CCC(=O)Nc1cccc(-c2c(-c3ccccc3)[nH]c3ncnc(OC)c23)c1 [Compound 1b],> 30000,> 30000,> 30000,–,> 30000,5370 ± 1920,5000,1700 ± 747,3960 ± 614 nM,4000,–,–
C=CC(=O)Nc1cccc(-c2c[nH]c3ncnc(OC)c23)c1 [Compound 9],–,24500 ± 4870,13600 ± 1400,2170 ± 968,9910 ± 3390,82 ± 4,–,14 ± 2,< 100 nM and 31 nM,–,–,–
COc1ncnc2[nH]c(-c3ccc(C)cc3)c(-c3cccc(NC(=O)C=CCN4CCCCC4)c3)c12 [Compound 10c],2750 ± 1220,4250 ± 336,4480 ± 896,253 ± 1,1900 ± 269,220 ± 57,–,197 ± 11,158 ± 16 nM,–,~2000,–
CCC(=O)Nc1cccc(-c2c(-c3ccc(CN4CCN(C)CC4)cc3)[nH]c3ncnc(OC)c23)c1 [Compound 17b],5670 ± 60,10300 ± 2170,5730 ± 1430,1520 ± 399,9610 ± 1120,460 ± 162,–,116 ± 57,302 ± 84 nM,–,–,–
C=CC(=O)Nc1cccc(-c2c(-c3ccc(N4CCN(C)CC4)cc3)[nH]c3ncnc(OC)c23)c1 [Compound 19a],638 ± 247,1670 ± 721,840 ± 289,< 14,60 ± 8,0.4,–,0.1,0.2 nM,–,–,–
CCC(=O)Nc1cccc(-c2c(-c3ccc(N4CCN(C)CC4)cc3)[nH]c3ncn(C)c(=O)c23)c1 [Compound 19b],9730 ± 4020,10200 ± 2240,6260 ± 1090,1790 ± 727,–,996 ± 395,–,147 ± 97,305 ± 192 nM,–,–,–
C=CC(=O)Nc1cccc(-c2c(-c3ccc(N4CCN(C)CC4)cc3)[nH]c3ncnc(OCC)c23)c1 [Compound 19c],759 ± 394,1660 ± 759,1020 ± 46,< 14,64 ± 25,0.2 ± 0.1,–,< 0.1,0.1 ± 0.1 nM,–,–,–
C=CC(=O)Nc1cccc(-c2c(-c3ccc(N4CCN(C)CC4)cc3)[nH]c3ncnc(OCCCSC)c23)c1 [Compound 19e],3680 ± 500,2570 ± 338,3010 ± 916,< 14,281 ± 88,0.2,–,< 0.1,0.1 ± 0.1 nM,–,–,–
C=CC(=O)Nc1cccc(-c2c(-c3ccc(N4CCN(C)CC4)cc3)[nH]c3nc[nH]c(=O)c23)c1 [Compound 19i],–,> 30000,> 30000,557 ± 266,–,12 ± 4,–,12 ± 4,24 ± 12 nM,–,–,–
C=CC(=O)Nc1cc(-c2c(-c3ccc(N4CCN(C)CC4)cc3)[nH]c3ncnc(OC)c23)ccc1OCCOC [Compound 20a],–,1100,956,< 14,~300,0.2 ± 0.1,–,< 0.1,< 0.1 nM,–,–,298 ± 251
C=CC(=O)Nc1cccc(-c2c(-c3ccc(N4CCN(C)CC4)cc3)[nH]c3ncn(C)c(=O)c23)c1 [Compound 29a],1140 ± 350,9510 ± 403,8820 ± 697,82 ± 20,< 200,1.2 ± 0.1,–,0.5,0.5 nM,–,–,188 ± 64
C#CCn1cnc2[nH]c(-c3ccc(N4CCN(C)CC4)cc3)c(-c3cccc(NC(=O)C=C)c3)c2c1=O [Compound 29c],1020 ± 335,2040,1390,22 ± 2,183 ± 48,5.1 ± 0.1,–,4 ± 2.7,4.9 ± 1.3 nM,–,–,–
C=CC(=O)Nc1cccc(-c2c(-c3ccc(N4CCN(C)CC4)cc3)[nH]c3ncn(CCCC)c(=O)c23)c1 [Compound 29d],767 ± 151,3270 ± 693,2970 ± 1070,< 14,550 ± 157,0.2,–,0.3 ± 0.3,4.5 ± 0.8 nM,–,–,–
C=CC(=O)Nc1cccc(-c2c(-c3ccc(N4CCN(C)CC4)cc3)[nH]c3ncn(CCSC)c(=O)c23)c1 [Compound 29e],1870 ± 595,> 30000,22400 ± 11200,< 14,723 ± 188,0.4 ± 0.1,–,0.1 ± 0.1,0.9 ± 0.1 nM,–,–,–
C=CC(=O)Nc1cccc(-c2c(-c3ccc(N4CCN(C)CC4)cc3)[nH]c3ncn(CCCSC)c(=O)c23)c1 [Compound 29f],–,11900,24700 ± 7550,134,–,4.6 ± 1.1,–,1.7 ± 0.5,20 ± 6 nM,–,–,–
C=CC(=O)Nc1cccc(-c2c(-c3ccc(N4CCN(C)CC4)cc3)[nH]c3ncn(CC(C)C)c(=O)c23)c1 [Compound 29h],1100 ± 506,6840 ± 866,6140 ± 2120,45 ± 7,686 ± 199,0.8 ± 0.2,–,0.2 ± 0.1,> 1 nM and 3.4 nM,–,–,–
C=CC(=O)Nc1cccc(-c2c(-c3ccc(N4CCN(C)CC4)cc3)[nH]c3ncn(CC4CC4)c(=O)c23)c1 [Compound 29k],453 ± 218,1790 ± 520,1380 ± 985,< 14,228 ± 73,1.1 ± 0.8,–,0.9 ± 0.6,> 1 nM and 7.7 nM,–,–,–
C=CC(=O)Nc1cccc(-c2c(-c3ccc(N4CCN(C)CC4)cc3)[nH]c3ncn(Cc4ccccc4)c(=O)c23)c1 [Compound 29l],1080 ± 169,> 30000,25200 ± 8250,44 ± 26,1570 ± 260,1 ± 0.2,–,1.5 ± 0.8,> 1 nM and 21 nM,–,–,–
"Cc1cc(C(=O)Nc2nc3cccc(Cl)c3n2[C@@H]2CCCCN(C(=O)/C=C/CN(C)C)C2)ccn1 [EGF816, nazartinib, reference compound]",4380 ± 1390,–,–,< 14,296 ± 64,–,–,–,–,–,–,–
"C=CC(=O)Nc1cccc(Nc2nc(Nc3ccc(N4CCN(C(C)=O)CC4)cc3OC)ncc2C(F)(F)F)c1 [Rociletinib, rociletinib, reference compound]",1910 ± 467,–,–,45 ± 11,145 ± 86,–,–,–,–,–,–,–
